Where “and” joins values, the source holds several entries; their conditions need not be identical. Equal entries are not always repeated.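 Each compound was tested at five concentrations against cells in 96-well plates for 48 hours. The concentration for 50% growth inhibition is given as GI50. TGI is the concentration that stops growth completely.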

Our source for the TGI and GI50 values is PubChem BioAssay (NCI).

What all share (experiment): NCI-60 cell line screen, 48 h
For assay [1], the system named is MALME-3M melanoma.
Assay [2] deals with SF-268 CNS.
The subject of assay [3] is M19-MEL melanoma.
Assay [4] relates to TK-10 renal.
For assay [5], the system named is NCI-H460 lung.
Assay [6] has as its system RXF 393 renal.
Assay [7] deals with DMS 273 small cell lung.
Assay [8] deals with CAKI-1 renal.
Assay [9] concerns PC-3 prostate.
Assay [10] deals with MCF7 breast.

`C#CCNC(=O)ON1C(=O)CCC1=O`: the TGI in assay [1], in [2], in assay [3], in assay [4], in assay [5] and in [6] was above 100 µM throughout. Further, the TGI in assay [7] was above 100 µM.

For the compound `CN(C)/C=N\c1ccnc(=O)[nH]1`, the TGI in assay [1], in assay [2], in assay [8], in assay [3], in assay [4] and in assay [5] was above 100 µM in each case. The TGI in assay [6] and in [7] was above 100 µM each time.

As for `N#C/C(=C\c1cccc(O)c1O)C(N)=O`, the TGI in assay [1], in assay [2], in assay [8], in assay [3], in assay [4] and in [5] was above 100 µM in each case. For the same compound, the TGI in [6] was 28 µM; in [7], above 100 µM.

Consider `Cl/C(N=Nc1ccccc1)=N/Nc1ccccc1`, for which the TGI in assay [1], in assay [2], in assay [8], in assay [3], in assay [4] and in assay [5] was above 100 µM each time. The TGI in [6] and in assay [7] was above 100 µM each time.

With `Cc1c2c(cc3c1C(=O)C(=O)C1=C3OC[C@@H]1C)C(C)(C)CCC2`, the TGI was 29 µM in [1]; 35.4 µM in assay [2]; above 100 µM in [8]; 6.68 µM in assay [3]; 56.7 µM in assay [4]; 28.1 µM in [5]. Moreover, the TGI turned out to be 33.5 µM in [6] and 28.5 µM in assay [7].

Consider `[O-]c1ccccc1C=Nc1ccc2c(c1)CCC2.[O-]c1ccccc1C=Nc1ccc2c(c1)CCC2.[O]=[U+2]=[O]`, for which the GI50 was above 100 µM in assay [1]; above 100 µM in [2]; above 100 µM in assay [8]; above 100 µM in assay [3]; 30.1 µM in [4]; 47.3 µM in [5]. Moreover, the GI50 was above 100 µM in assay [6] and 14.2 µM in assay [7]. Further, the TGI in [1] is above 100 µM; in assay [2], above 100 µM; in assay [8], above 100 µM; in [3], above 100 µM; in assay [4], 82.2 µM; in assay [5], above 100 µM. The TGI in assay [6] and in [7] was above 100 µM throughout.

Regarding `O=c1nc(-c2ccccc2)cc(CC(O)c2ccc(Cl)c(Cl)c2)[nH]1` (stereo unspecified), the TGI in assay [1], in assay [2], in assay [8], in assay [3], in assay [4] and in assay [5] was above 100 µM each time. The TGI in assay [6] and in assay [7] was above 100 µM in each case.

Turning to `C[Si](C)(C)C(CCCCSc1ccccc1)(Sc1ccccc1)Sc1ccccc1`, the TGI in assay [2], in assay [8], in assay [3], in assay [4], in [5] and in assay [6] was above 100 µM throughout. In [7], this compound gave a TGI above 100 µM.

Regarding `COC(=O)CCC12CCC(=O)C1[C@@H](C(=O)OC)C[C@H]2C(=O)OC` (stereo partly specified), the TGI in assay [1], in assay [2], in assay [8], in [3], in assay [4] and in [5] was above 100 µM each time. In addition, the TGI in assay [6] and in assay [7] was above 100 µM each time.

For the compound `CNc1ccc2ncccc2c1[N+](=O)[O-]`, the TGI in [1], in assay [2], in assay [8], in assay [3], in assay [4] and in assay [5] was above 100 µM in each case. Also, the TGI in assay [6] and in [7] was above 100 µM in each case.

With `CN(C)c1nc(=NCc2ccco2)ss1`, the TGI in [1] is 54 µM; in assay [2], 51.8 µM; in assay [8] it was 49.1 µM; in assay [9] it was 30.5 µM; in [3], above 43.6 µM; in assay [10], 33.1 µM. Further, the TGI in assay [4] is above 100 µM; in [5] it was above 100 µM; in assay [6] it was 16.1 µM; in assay [7], above 34.6 µM.

With `NNc1cnn(-c2ccccc2)c(=O)c1Cl`, the TGI in assay [1], in assay [2], in assay [8], in assay [3], in assay [4] and in [5] was above 100 µM each time. For the same compound, the TGI in assay [6] and in [7] was above 100 µM in each case.

As for `CCOC(=O)CN(Cn1cncn1)Cn1cncn1`, the TGI is above 100 µM in assay [1]; above 100 µM in assay [8]; above 100 µM in assay [3]; above 100 µM in assay [4]; 57.1 µM in assay [5]; 36 µM in assay [6]. In [7], this compound yielded a TGI of 39.8 µM.

As for `COC(=O)C1C(=O)CC2CCCCC21` (stereo unspecified), the TGI in assay [1], in assay [2], in assay [8], in assay [3], in [4] and in assay [5] was above 100 µM each time. The TGI in assay [6] and in assay [7] was above 100 µM in each case.

With `N/C(=N\NS(=O)(=O)c1ccccc1)Oc1ccc(Br)cc1Br`, the TGI in assay [1], in assay [2], in assay [8], in assay [3], in assay [4] and in assay [5] was above 100 µM throughout. The TGI in assay [6] and in assay [7] was above 100 µM throughout.

With `CC(C)(O)/C=C/C(=O)[C@](C)(O)[C@H]1[C@H](O)C[C@@]2(C)[C@@H]3CC=C4[C@@H](C[C@H](O)C(=O)C4(C)C)[C@]3(C)C(=O)C[C@]12C`, the TGI in assay [1] was 0.932 µM; in assay [2], 0.631 µM and 0.807 µM; in assay [3], 20.7 µM; in [4], 0.473 µM and 0.495 µM; in [5], 20.4 µM; in [6], 0.408 µM and 0.263 µM. The TGI in [7] is 0.543 µM. Besides, the GI50 in assay [8] was 1.85 µM; in [3] it was 0.0781 µM; in assay [5], 0.0509 µM; in assay [6], 0.187 µM; in assay [7], 0.108 µM.

With `O=C(C#Cc1ccccc1)N1c2ccccc2CC1c1c[nH]c2ccccc12` (stereo unspecified), the TGI in assay [1] was 37.6 µM; in assay [8] it was 33.2 µM; in [3], 43.1 µM; in assay [4] it was 44.2 µM; in assay [5], 42.3 µM; in assay [6], 19.5 µM. The compound also registered a TGI in assay [7] of 30 µM.

In the case of `O=C1C(=O)N(c2ccc(Cl)cc2)C(=O)C(=O)C1c1nc2ccccc2s1`, the TGI in assay [1], in [2], in [8], in [3], in assay [4] and in [5] was above 100 µM each time. The TGI in assay [6] and in assay [7] was above 100 µM each time.

For `O=c1cccccc1NCCCCCCCNc1cccccc1=O`, the TGI in [1] is above 100 µM; in [2] it was above 100 µM; in assay [8] it was above 100 µM; in assay [3] it was 84.8 µM; in assay [5], above 100 µM; in assay [6], 25.8 µM. This compound also had a TGI in assay [7] above 100 µM.

On to `CCOc1ccc(/C(C=O)=C(\Cl)c2ccc(OC)cc2)cc1`, for which the TGI in assay [1], in assay [2], in [8], in [3], in assay [10] and in assay [4] was above 100 µM throughout. Also, the TGI in assay [5], in assay [6] and in [7] was above 100 µM in each case.

Turning to `COc1ccc(-c2cc(C(=O)Nc3cc(C(F)(F)F)cc(C(F)(F)F)c3)c3ccccc3n2)cc1`, the TGI was 46.4 µM in assay [1]; 32.2 µM in assay [2]; 25.5 µM in assay [8]; 63 µM in assay [3]; 29.5 µM in assay [4]; 19.4 µM in assay [5]. The values for the TGI in assay [6] and in [7] were 21 µM and 21.1 µM, respectively.

As for `COC(=O)C1=C(CS(=O)c2ccc([N+](=O)[O-])cc2[N+](=O)[O-])C2C=CC1C2` (stereo unspecified), the TGI in assay [1] was 79.5 µM; in assay [2], above 100 µM; in assay [8], 39.6 µM; in [3], 64.2 µM; in assay [4] it was 51.7 µM; in assay [5] it was above 100 µM. The TGI came to 52.1 µM in [6] and 43 µM in assay [7].
